# Assay results as given in PubChem BioAssay AID1794823.
# pEC50: −log10 of the molar value.
# Biological target: Sodium- and chloride-dependent creatine transporter 1 (Homo sapiens) (UniProt P48029)
# Assay: creatine transporter SLC6A8 activation, membrane depolarization – cell-based, membrane potential dye, HEK-293 JumpIN, SLC6A8 overexpression, dose response (AID 1794823)
# Conditions: HEK-293 JumpIN SLC6A8, FLIPR membrane potential fluorescence
# Chain of Sodium- and chloride-dependent creatine transporter 1 (Homo sapiens) (P48029 whole entry, looked up): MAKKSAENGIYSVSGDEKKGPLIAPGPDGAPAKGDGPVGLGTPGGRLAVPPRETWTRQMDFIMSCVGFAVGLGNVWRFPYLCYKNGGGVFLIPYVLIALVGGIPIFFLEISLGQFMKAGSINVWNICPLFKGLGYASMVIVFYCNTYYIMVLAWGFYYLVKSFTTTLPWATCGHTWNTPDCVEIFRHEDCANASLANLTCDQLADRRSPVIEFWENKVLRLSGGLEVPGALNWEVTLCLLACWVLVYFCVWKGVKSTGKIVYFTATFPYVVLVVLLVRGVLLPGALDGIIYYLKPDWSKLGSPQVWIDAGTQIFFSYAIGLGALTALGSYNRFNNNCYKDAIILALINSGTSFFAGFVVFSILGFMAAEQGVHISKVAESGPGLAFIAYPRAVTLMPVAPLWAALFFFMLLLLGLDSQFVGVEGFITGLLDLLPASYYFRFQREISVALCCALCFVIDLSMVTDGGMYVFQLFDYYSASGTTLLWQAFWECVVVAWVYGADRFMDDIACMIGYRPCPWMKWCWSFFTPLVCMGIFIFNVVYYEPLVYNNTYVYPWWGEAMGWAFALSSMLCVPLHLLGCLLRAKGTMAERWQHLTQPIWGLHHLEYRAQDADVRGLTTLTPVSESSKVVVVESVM
smiles,measurement,value
CN(CC(=O)O)C(=N)N,pEC50,5.30
